The target of one assay is T1, Kv1.3 potassium channel (Homo sapiens, UniProt P22001).
T1 construct: expressed in transfected cells
Nature of the assay: Kv1.3 potassium channel blocker activity, automated whole-cell patch clamp (Patchliner). Type of assay: cell-based. The settings on record: CHO-K1 cells stably expressing Kv1.3; whole-cell current, Hill fit. As for the experimental part: Example 9. Evaluation of Kv1.3 Potassium Channel Blocker Activities
This assay is used to evaluate the disclosed compounds' activities as Kv1.3 potassium channel blockers.
CHO-K1 cells stably expressing Kv1.3 were grown in DMEM containing 10% heat-inactivated FBS, 1 mM Sodium Pyruvate, 2 mM L-Glutamine and G418 (500 μg/ml). Cells were grown in culture flasks at 37° C. in a […] incubator.
The cells were bathed in an extracellular solution containing 140 mM NaCl, 4 mM KCl, 2 mM CaCl2, 1 mM MgCl2, 5 mM Glucose, 10 mM HEPES; pH adjusted to 7.4 with NaOH; 295-305 mOsm. The internal solution contained 50 mM KCl, 10 mM NaCl, 60 mM KF, 20 mM EGTA, 10 mM HEPES; pH adjusted to 7.2 with KOH; 285 mOsm. All compounds were dissolved in DMSO at 30 mM. Compound stock solutions were freshly diluted with external solution to concentrations of 30 nM, 100 nM, 300 nM, 1 μM, 3 μM, 10 μM, 30 μM and 100 μM. The highest content of DMSO (0.3%) was present in 100 μM.
The currents were evoked by applying 100 ms depolarizing pulses from −90 mV (holding potential) to +40 mV were applied with 0.1 Hz frequency. Control (compound-free) and compound pulse trains for each compound concentration applied contained 20 pulses. 10-second breaks were used between pulse trains (see Table A below).
Whole-cell current recordings and compound application were enabled by means of an automated patch clamp platform Patchliner (Nanion Technologies GmbH). EPC 10 patch clamp amplifier (HEKA Elektronik Dr. Schulze GmbH) along with Patchmaster software (HEKA Elektronik Dr. Schulze GmbH) was used for data acquisition. Data were sampled at 10 kHz without filtering. Passive leak currents were subtracted online using a P/4 procedure (HEKA Elektronik Dr. Schulze GmbH). Increasing compound concentrations were applied consecutively to the same cell without washouts in between. Total compound incubation time before the next pulse train was not longer than 10 seconds. Peak current inhibition was observed during compound equilibration.
(§1) AUC and peak values were obtained with Patchmaster (HEKA Elektronik Dr. Schulze GmbH). To determine IC50, the last single pulse in the pulse train corresponding to a given compound concentration was used. Obtained AUC and peak values in the presence of compound were normalized to control values in the absence of compound. Using Origin (OridinLab), IC50 was derived from data fit to Hill equation: Icompound/Icontrol=(100−A)/(1+([compound]/IC50)nH)+A, where IC50 value is the concentration at which current inhibition is half-maximal, [compound] is the applied compound concentration, A is the fraction of current that is not blocked and nH is the Hill coefficient.

For another assay, the target named is T2, hERG channel (Homo sapiens, UniProt Q12809).
T2 construct: expressed in transfected cells
T2 sequence (Q12809 whole entry): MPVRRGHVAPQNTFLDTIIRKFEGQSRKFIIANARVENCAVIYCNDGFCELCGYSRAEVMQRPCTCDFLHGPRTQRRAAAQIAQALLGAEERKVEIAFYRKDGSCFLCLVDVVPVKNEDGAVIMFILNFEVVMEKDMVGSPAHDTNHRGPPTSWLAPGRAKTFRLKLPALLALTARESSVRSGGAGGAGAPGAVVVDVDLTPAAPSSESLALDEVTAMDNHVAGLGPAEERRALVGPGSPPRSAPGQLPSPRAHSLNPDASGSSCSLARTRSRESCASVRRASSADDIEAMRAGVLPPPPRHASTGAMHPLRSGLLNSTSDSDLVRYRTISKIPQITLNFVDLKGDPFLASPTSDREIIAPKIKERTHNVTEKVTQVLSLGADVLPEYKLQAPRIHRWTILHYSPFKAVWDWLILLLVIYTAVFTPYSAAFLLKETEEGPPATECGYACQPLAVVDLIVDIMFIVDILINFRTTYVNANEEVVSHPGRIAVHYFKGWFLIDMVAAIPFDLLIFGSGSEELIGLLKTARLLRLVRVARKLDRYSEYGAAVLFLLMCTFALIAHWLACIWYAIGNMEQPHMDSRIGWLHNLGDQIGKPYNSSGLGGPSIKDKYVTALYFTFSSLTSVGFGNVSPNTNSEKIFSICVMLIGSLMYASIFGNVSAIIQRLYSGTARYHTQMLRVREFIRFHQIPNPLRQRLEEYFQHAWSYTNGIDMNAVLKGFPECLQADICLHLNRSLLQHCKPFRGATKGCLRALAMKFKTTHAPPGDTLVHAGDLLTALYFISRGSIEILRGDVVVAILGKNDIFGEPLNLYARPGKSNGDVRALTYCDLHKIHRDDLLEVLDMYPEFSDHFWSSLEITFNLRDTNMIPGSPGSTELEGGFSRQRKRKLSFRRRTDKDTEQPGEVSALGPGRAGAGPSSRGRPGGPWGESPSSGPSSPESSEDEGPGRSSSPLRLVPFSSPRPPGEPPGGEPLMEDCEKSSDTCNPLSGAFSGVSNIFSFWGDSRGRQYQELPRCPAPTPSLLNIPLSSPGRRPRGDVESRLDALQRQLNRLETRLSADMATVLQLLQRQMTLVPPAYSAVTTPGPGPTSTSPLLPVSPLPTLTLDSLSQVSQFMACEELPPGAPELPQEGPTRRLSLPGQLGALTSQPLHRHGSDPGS
Put plainly: hERG electrophysiology, automated whole-cell patch clamp (Patchliner). The settings on record: CHO-K1 cells stably expressing hERG; whole-cell current, Hill fit. Type of assay: cell-based. As for the experimental part: Example 10. Evaluation of hERG Activities
This assay is used to evaluate the disclosed compounds' inhibition activities against the hERG channel.
CHO-K1 cells stably expressing hERG were grown in Ham's F-12 Medium with Glutamine containing 10% heat-inactivated FBS, 1% Penicillin/Streptomycin, Hygromycin (100 μg/ml) and G418 (100 μg/ml). Cells were grown in culture flasks at 37° C. in a 5% CO2-humidified incubator.
The cells were bathed in an extracellular solution containing 140 mM NaCl, 4 mM KCl, 2 mM CaCl2), 1 mM MgCl2, 5 mM Glucose, 10 mM HEPES; pH adjusted to 7.4 with NaOH; 295-305 mOsm. The internal solution contained 50 mM KCl, 10 mM NaCl, 60 mM KF, 20 mM EGTA, 10 mM HEPES; pH adjusted to 7.2 with KOH; 285 mOsm. All compounds were dissolved in DMSO at 30 mM. Compound stock solutions were freshly diluted with external solution to concentrations of 30 nM, 100 nM, 300 nM, 1 μM, 3 μM, 10 μM, 30 μM and 100 μM. The highest content of DMSO (0.3%) was present in 100 μM.
The voltage protocol (see Table B) was designed to simulate voltage changes during a cardiac action potential with a 300 ms depolarization to +20 mV (analogous to the plateau phase of the cardiac action potential), a repolarization for 300 ms to −50 mV (inducing a tail current) and a final step to the holding potential of −80 mV. The pulse frequency was 0.3 Hz. Control (compound-free) and compound pulse trains for each compound concentration applied contained 70 pulses.
Whole-cell current recordings and compound application were enabled by means of an automated patch clamp platform Patchliner (Nanion). EPC 10 patch clamp amplifier (HEKA) along with Patchmaster software (HEKA Elektronik Dr. Schulze GmbH) was used for data acquisition. Data were sampled at 10 kHz without filtering. Increasing compound concentrations were applied consecutively to the same cell without washouts in between.
as §1, with “PEAK” for “peak”, “IC50” for “IC50,”, “IC50” for “IC50 value”

SMILES strings stand for the structures. Some results are limits rather than exact numbers.

T1 sequence (P22001 whole entry): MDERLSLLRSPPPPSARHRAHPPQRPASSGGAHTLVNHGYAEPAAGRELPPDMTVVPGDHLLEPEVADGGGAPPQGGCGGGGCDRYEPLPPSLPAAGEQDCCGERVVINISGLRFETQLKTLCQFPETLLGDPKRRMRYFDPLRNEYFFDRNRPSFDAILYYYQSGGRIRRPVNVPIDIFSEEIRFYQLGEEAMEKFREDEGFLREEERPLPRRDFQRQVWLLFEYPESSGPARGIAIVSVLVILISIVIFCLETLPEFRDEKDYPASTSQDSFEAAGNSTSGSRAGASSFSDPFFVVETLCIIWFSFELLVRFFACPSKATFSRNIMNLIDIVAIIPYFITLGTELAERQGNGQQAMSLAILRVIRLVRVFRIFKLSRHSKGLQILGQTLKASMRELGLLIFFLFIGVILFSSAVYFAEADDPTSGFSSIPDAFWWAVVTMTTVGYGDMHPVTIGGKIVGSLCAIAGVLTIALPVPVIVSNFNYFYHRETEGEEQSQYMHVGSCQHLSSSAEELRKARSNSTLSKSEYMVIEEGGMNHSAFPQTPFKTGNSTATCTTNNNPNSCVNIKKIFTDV

`O=C1[C@@H]2C[C@H](c3c(O)ccc(Cl)c3Cl)CCN2C(=O)CN1C1CC(O)C1` (relative stereo) [Compound 20, (8R,9aS)-rel-8-(2,3-dichloro-6-hydroxyphenyl)-2-(3-hydroxycyclobutyl)-hexahydropyrido[1,2-a]pyrazine-1,4-dione]: the IC50 against Kv1.3 potassium channel was under 1 µM; on hERG channel, over 30 µM.
On the same counts, the results for `Cc1cc(O)c([C@@H]2CCN3C(=O)[C@@H](CO)NC(=O)[C@@H]3C2)c(Cl)c1Cl` (relative stereo) [Compound 22, (8R,9aS)-rel-8-(2,3-dichloro-6-hydroxy-4-methylphenyl)-3-((3R)-hydroxymethyl)-hexahydro-2H-pyrido[1,2-a]pyrazine-1,4-dione] are under 1 µM and over 30 µM.
Turning to `COC[C@H]1NC(=O)[C@@H]2C[C@H](c3c(O)ccc(Cl)c3Cl)CCN2C1=O` (relative stereo) [Compound 55, (8R,9aS)-rel-8-(2,3-dichloro-6-hydroxyphenyl)-3-((3R)-methoxymethyl)-hexahydro-2H-pyrido[1,2-a]pyrazine-1,4-dione], the IC50 against Kv1.3 potassium channel is under 1 µM; against hERG channel, over 30 µM.
On to `O=C1NC(=O)N2CC[C@H](c3c(O)ccc(Cl)c3Cl)C[C@@H]12` (single isomer, unassigned; diastereoisomer 1) [Compound 9, 7-(2,3-dichloro-6-hydroxyphenyl)tetrahydro-imidazo[1,5-a]pyridine-1,3(2H,5H)-dione diastereoisomer 1], for which the IC50 on Kv1.3 potassium channel was under 1 µM; against hERG channel, over 30 µM.
With `O=C1[C@@H]2C[C@H](c3c(O)ccc(Cl)c3Cl)CCN2C(=O)CN1C1CC(O)C1` (single isomer, unassigned; isomer 1) [Compound 14, 8-(2,3-dichloro-6-hydroxyphenyl)-2-[3-hydroxycyclobutyl]-hexahydropyrido[1,2-a]pyrazine-1,4-dione isomer 1], the results for the concentration for half-maximal inhibition (IC50) on Kv1.3 potassium channel and on hERG channel were under 1 µM and over 30 µM, respectively.
For the compound `O=C1[C@@H]2C[C@H](c3c(O)ccc(Cl)c3Cl)CCN2C(=O)CN1C1CC(O)C1` (single isomer, unassigned; isomer 2) [Compound 44, 8-(2,3-dichloro-6-hydroxyphenyl)-2-[3-hydroxycyclobutyl]-hexahydropyrido[1,2-a]pyrazine-1,4-dione isomer 2], the IC50 on Kv1.3 potassium channel was under 1 µM; at hERG channel, over 30 µM.
The corresponding values for `O=C1[C@@H]2C[C@H](c3c(O)ccc(Cl)c3Cl)CCN2C(=O)[C@H]2C[C@H](O)CN12` (single isomer, unassigned; isomer 2) [Compound 65, 7-(2,3-dichloro-6-hydroxyphenyl)-2-hydroxyhexahydro-1H-pyrido[1,2-a]pyrrolo[1,2-d]pyrazine-5,11(5aH,11aH)-dione isomer 2] are under 1 µM and under 30 µM.
On to `O=C1[C@@H]2C[C@H](O)CN2C(=O)[C@@H]2C[C@H](c3c(O)ccc(Cl)c3Cl)CCN12` (single isomer, unassigned; isomer 4) [Compound 35, 7-(2,3-dichloro-6-hydroxyphenyl)-2-hydroxyhexahydro-1H-pyrido[1,2-a]pyrrolo[1,2-d]pyrazine-5,11(5aH,11aH)-dione isomer 4], for which the IC50 against Kv1.3 potassium channel is under 1 µM; against hERG channel it was under 30 µM.
The corresponding values for `O=C1[C@@H]2C[C@H](c3c(O)ccc(Cl)c3Cl)CCN2C(=O)CN1C1CNC1` [Compound 1, (8R,9aS)-2-(azetidin-3-yl)-8-(2,3-dichloro-6-hydroxyphenyl)-octahydro-1H-pyrido[1,2-a]pyrazine-1,4-dione] are under 1 µM and over 30 µM.
Regarding `O=C1N[C@H](CO)C(=O)N2CC[C@@H](c3c(O)ccc(Cl)c3Cl)C[C@@H]12` [Compound 2, (3R,8R,9aS)-8-(2,3-dichloro-6-hydroxyphenyl)-3-(hydroxymethyl)-hexahydro-2H-pyrido[1,2-a]pyrazine-1,4-dione], the IC50 against Kv1.3 potassium channel was under 1 µM; at hERG channel it was over 30 µM.
As to `C[C@H](O)[C@H]1NC(=O)[C@@H]2C[C@H](c3c(O)ccc(Cl)c3Cl)CCN2C1=O` [Compound 3, (3R,8R,9aS)-8-(2,3-dichloro-6-hydroxyphenyl)-3-[(1S)-1-hydroxyethyl]-hexahydro-2H-pyrido[1,2-a]pyrazine-1,4-dione], the IC50 at Kv1.3 potassium channel is under 1 µM; at hERG channel, over 30 µM.
As to `CN1C(=O)[C@@H]2C[C@H](c3c(O)ccc(Cl)c3Cl)CCN2C(=O)[C@H]1CO` [Compound 6, (3R,8R,9aS)-8-(2,3-dichloro-6-hydroxyphenyl)-3-(hydroxymethyl)-2-methyl-hexahydropyrido[1,2-a]pyrazine-1,4-dione], the IC50 against Kv1.3 potassium channel was under 1 µM; against hERG channel, over 30 µM.
For the compound `O=C1NCCC(=O)N2CCC(c3c(O)ccc(Cl)c3Cl)CC12` (stereo not shown) [Compound 8, 9-(2,3-dichloro-6-hydroxyphenyl)-decahydropyrido[1,2-a][1,4]diazepine-1,5-dione], the IC50 is under 1 µM against Kv1.3 potassium channel and over 30 µM against hERG channel.
As to `O=C1[C@H]2[C@@H](O)CCN2C(=O)[C@@H]2C[C@H](c3c(O)ccc(Cl)c3Cl)CCN12` [Compound 12, (1S,5aS,7R,11aR)-7-(2,3-dichloro-6-hydroxyphenyl)-1-hydroxyhexahydro-1H-pyrido[1,2-a]pyrrolo[1,2-d]pyrazine-5,11(5aH,11aH)-dione], the IC50 on Kv1.3 potassium channel is under 1 µM; on hERG channel, over 30 µM.
The corresponding values for `C[C@@H](O)[C@H]1NC(=O)[C@@H]2C[C@H](c3c(O)ccc(Cl)c3Cl)CCN2C1=O` [Compound 24, (3R,8R,9aS)-8-(2,3-dichloro-6-hydroxyphenyl)-3-[(1R)-1-hydroxyethyl]-hexahydro-2H-pyrido[1,2-a]pyrazine-1,4-dione] are under 1 µM and over 30 µM.
On to `O=C1[C@@H]2C[C@H](c3c(O)ccc(Cl)c3Cl)CCN2C(=O)CN1CCO` [Compound 26, (8R,9aS)-8-(2,3-dichloro-6-hydroxyphenyl)-2-(2-hydroxyethyl)-hexahydropyrido[1,2-a]pyrazine-1,4-dione], for which the figures for the IC50 at Kv1.3 potassium channel and against hERG channel were under 1 µM and over 30 µM, respectively.
Regarding `CC(C)[C@H](O)[C@H]1NC(=O)[C@@H]2C[C@H](c3c(O)ccc(Cl)c3Cl)CCN2C1=O` [Compound 30, (3R,8R.9aS)-8-(2,3-dichloro-6-hydroxyphenyl)-3-[(1S)-1-hydroxy-2-methylpropyl]-hexahydro-2H-pyrido[1,2-a]pyrazine-1,4-dione], the half-inhibitory concentration (IC50) against Kv1.3 potassium channel was under 1 µM; against hERG channel, over 30 µM.

In general, IC50 refers to the concentration that inhibits the measured activity by half. Read a low IC50 as greater potency.

(Values after patent publication US20230040182A1, “ARYL HETEROBICYCLIC COMPOUNDS AS Kv1.3 POTASSIUM SHAKER CHANNEL BLOCKERS” (priority 2019, published 2023).)
